Like-named read-outs stand apart in the source and are kept apart here.
Tests used:
[1] = tested on: adult subjects with documented transfusional iron overload; experiment: Safety: ongoing randomized open-label study, 16 or 32 mg/kg/day, transfusional iron overload; format: in vivo, human
Method: This study is an ongoing multicenter, randomized, open-label study of adult subjects with documented transfusional iron overload in need of chelation therapy. Subjects received investigational product for 24 weeks with an extension of 72 weeks for the evaluation of long-term safety and efficacy. Subjects were stratified according to transfusional iron intake (transfusion burden) then randomized to receive Compound 1 at 16 or 32 mg/kg/day. The investigational product was administered orally once daily for 24 weeks. At the conclusion of the 24-week dosing period, qualified subjects were allowed to continue receiving Compound 1 for an additional 72 weeks. Dose adjustments from 24 weeks onward are permitted if clinically indicated. Fifty-one subjects enrolled and completed the first 24 weeks of the study; 49 subjects entered the 72-week extension.

[2] = Example 7: high single doses in healthy human subjects (PK); format: in vivo; conditions: fasted; for CL renal / AUC(0-inf) / Cmax / Tmax / Vd/F / half-life: both sexes, human; for CL renal: plasma and urine; for AUC(0-inf) / Cmax / Tmax / Vd/F / half-life: plasma; for Vd/F: read-out: Vz/F; for half-life: read-out: t½ (converted)
Method: Subjects were male and female healthy human volunteers aged between 18 and 50 years, free from clinically significant illness or disease as determined by their medical/surgical history, physical examination etc., and having a serum ferritin>20 ng/mL. Subjects were given, in the fasted state, either 30, 40, 50, or 60 mg/kg Compound 1 as a blended formulation of 96% (wt/wt) drug substance (powder) with 3% (wt/wt) croscarmellose sodium and 1% (wt/wt) magnesium stearate dispensed in hard gelatin capsules in strengths of 50 mg, 100 mg, 250 mg, and 375 mg.
The 30 and 50 mg/kg dose groups each contained seven subjects; data from only four of these subjects was used to calculate AUCinf, t½, CL/F, and VZ/F. The 40 and 60 mg/kg dose groups each contained three subjects; data from only three of these subjects was used to calculate AUCinf, t½, CL/F, and VZ/F.
Blood samples of approximately 7 mL were drawn via cannula at 0.25, 0.5, 0.75, 1, 1.25, 1.5, 2, 2.5, 4, 8, 12 and 24 hours post-dose, for pharmacokinetic analysis. (See FIG. 2.) Urine was collected over the time periods 0-4, 4-8, 8-12 and 12-24 hours post-dose for pharmacokinetic and pharmacodynamic assessment.
PK plasma and PK urine samples were assayed by a validated LC/MS/MS method, specific for the determination of Compound 1. Pharmacokinetic parameters for Compound 1 will be calculated using non-compartmental analysis. Only plasma and urine concentrations greater than the lower limits of quantitation (LOQ, 5 ng/mL in plasma and urine) for the assays will be used in the pharmacokinetic analysis.

SMILES: COCCOCCOCCOc1cccc(C2=N[C@@](C)(C(=O)O)CS2)c1O [Compound 1, (S)-4,5-Dihydro-2-[2-hydroxy-3-(3,6,9-trioxadecyloxy)phenyl]-4-methyl-4-thiazolecarboxylate magnesium hydroxide]
- TEAE headache ([1]; 5 subjects): 9.8%
- TEAE increased transaminases ([1]; 8 subjects): 15.7%
- Treatment-related gastrointestinal TEAEs ([1]; 17 subjects): 33.3%
- subjects with at least 1 related TEAE ([1]; 31/51 subjects): 61%
- Elevations in transaminases ([1]; 72 week treatment period): not significant
- Mean serum creatinine ([1]; 72 week treatment period, remained in the normal range): did not change from baseline
- TEAE diarrhea ([1]; N=3): 5.9%
- TEAE flatulence ([1]; N=6): 11.8%
- Any TEAE ([1]; Total (N = 51)): 49 (96.1%) N (%)
- Creatinine increase >33% and creatinine <=ULN at 2 consecutive post-baseline visits ([1]; Total (N = 51)): 2 (3.9) N (%)
- Creatinine increase >33% and creatinine >ULN at 2 consecutive post-baseline visits ([1]; Total (N = 51)): 0 N (%)
- Creatinine increase and creatinine >ULN at 2 consecutive post-baseline visits ([1]; Total (N = 51)): 1 (2.0) N (%)
- Serious TEAE ([1]; Total (N = 51)): 5 (9.8%) N (%)
- TEAE Related to Investigational Product ([1]; Total (N = 51)): 31 (60.8%) N (%)
- TEAE Requiring Discontinuation of Study Drug ([1]; Total (N = 51)): 14 (27.5%) N (%)
- serum creatinine levels ([1]; as of Week 48): no trends
- tolerability ([1]; doses tested (8-50 mg/kg/day)): generally well tolerated
- SAEs ([1]; in four subjects, none judged related to treatment): 10 SAEs
- severity of all related TEAEs ([1]; in vivo): mild to moderate
- CL renal ([2]; single oral dose 30 mg/kg): 139 ± 13.2 mL/min
- CL renal ([2]; single oral dose 40 mg/kg): 152 ± 18 mL/min
- CL renal ([2]; single oral dose 50 mg/kg): 103 ± 16.2 mL/min
- CL renal ([2]; single oral dose 60 mg/kg): 146 ± 34.4 mL/min
- AUC(0-inf) ([2]; single oral dose 30 mg/kg): 161 ± 24.1 µg·h/mL
- Cmax ([2]; single oral dose 30 mg/kg): 68.2 ± 17.5 µg/mL
- Tmax ([2]; single oral dose 30 mg/kg): 1 h
- Vd/F ([2]; single oral dose 30 mg/kg): 248 ± 58.8 L
- half-life ([2]; single oral dose 30 mg/kg): 12.1 ± 3.05 h
- AUC(0-inf) ([2]; single oral dose 40 mg/kg): 195 ± 67.3 µg·h/mL
- Cmax ([2]; single oral dose 40 mg/kg): 87.9 ± 15 µg/mL
- Tmax ([2]; single oral dose 40 mg/kg): 1.38 h
- Vd/F ([2]; single oral dose 40 mg/kg): 542 ± 657 L
- half-life ([2]; single oral dose 40 mg/kg): 18.6 ± 19.2 h
- AUC(0-inf) ([2]; single oral dose 50 mg/kg): 236 ± 58.3 µg·h/mL
- Cmax ([2]; single oral dose 50 mg/kg): 91.7 ± 18.8 µg/mL
- Tmax ([2]; single oral dose 50 mg/kg): 1.5 h
- Vd/F ([2]; single oral dose 50 mg/kg): 338 ± 272 L
- half-life ([2]; single oral dose 50 mg/kg): 12.8 ± 7.66 h
- AUC(0-inf) ([2]; single oral dose 60 mg/kg): 227 ± 44.7 µg·h/mL
- Cmax ([2]; single oral dose 60 mg/kg): 104 ± 36.7 µg/mL
- Tmax ([2]; single oral dose 60 mg/kg): 1.25 h
- Vd/F ([2]; single oral dose 60 mg/kg): 285 ± 159 L
- half-life ([2]; single oral dose 60 mg/kg): 8.44 ± 3.83 h
- CL/F ([2]; single oral dose 30 mg/kg): 239 ± 17.2 mL/min
- CL/F ([2]; single oral dose 40 mg/kg): 290 ± 73.8 mL/min
- CL/F ([2]; single oral dose 50 mg/kg): 286 ± 56.1 mL/min
- CL/F ([2]; single oral dose 60 mg/kg): 381 ± 55.8 mL/min
